The values that follow come from patent publication US7960561B2, “2-(phenylamino) benzimidazole derivatives and their use as modulators of small-conductance calcium-activated potassium channels” (Neurosearch A/S, priority 2005, dated 2011).

The structures appear in SMILES notation. Counter-ions that a name gives are not always drawn. Bounds are passed on as bounds.

For `Clc1ccc(Nc2nc3ccccc3[nH]2)cc1` (as salt: hydrochloride) [Example 1, N-(Benzimidazol-2-yl)-4-chloroaniline], the melting point (usually the temperature, or range, at which the solid turns liquid) lay within 238 to 240 °C.

`FC(F)(F)c1cc(Nc2nc3ccccc3[nH]2)ccc1Cl` (as salt: hydrochloride) [Example 2, N-(Benzimidazol-2-yl)-4-chloro-3-(trifluoromethyl)aniline] displayed a melting point of 255 to 260 °C.

On to `Clc1ccc(Nc2nc3ccccc3[nH]2)cc1Cl` (as salt: hydrochloride) [Example 3, N-(Benzimidazol-2-yl)-3,4-dichloroaniline], for which the melting point is greater than 270 °C.

For the compound `Clc1cccc(Nc2nc3ccccc3[nH]2)c1` (as salt: hydrochloride) [Example 5, N-(Benzimidazol-2-yl)-3-chloroaniline], the melting point was in the range of 252 to 257 °C.

`FC(F)(F)Oc1ccc(Nc2nc3ccccc3[nH]2)cc1` (as salt: hydrochloride) [Example 6, N-(Benzimidazol-2-yl)-4-(trifluoromethoxy)aniline] yielded a melting point of 250 to 251 °C.

`Fc1ccc(Nc2nc3ccccc3[nH]2)cc1` (as salt: hydrochloride) [Example 7, N-(Benzimidazol-2-yl)-4-fluoroaniline] showed a melting point of 215 to 216 °C.

For `Fc1ccc(Nc2nc3ccccc3[nH]2)cc1F` (as salt: hydrochloride) [Example 8, N-(Benzimidazol-2-yl)-3,4-difluoroaniline], the melting point was 283 to 284 °C.

`Fc1cc(F)cc(Nc2nc3ccccc3[nH]2)c1` (as salt: hydrochloride) [Example 9, N-(Benzimidazol-2-yl)-3,5-difluoroaniline] gave a melting point of 292 to 293 °C.

As to `Fc1ccc(Nc2nc3ccccc3[nH]2)cc1C(F)(F)F` (as salt: hydrochloride) [Example 11, N-(Benzimidazol-2-yl)-4-fluoro-3-(trifluoromethyl)aniline], the melting point lay within 255 to 257 °C.

The compound `Cc1cc(Nc2nc3ccccc3[nH]2)ccc1F` (as salt: hydrochloride) [Example 12, N-(Benzimidazol-2-yl)-4-fluoro-3-methylaniline] came in with a melting point of 246 to 248 °C.

As for `FC(F)(F)c1cc(Nc2nc3ccccc3[nH]2)cc(C(F)(F)F)c1` (as salt: hydrochloride) [Example 13, N-(Benzimidazol-2-yl)-3,5-bis(trifluoromethyl)aniline], the melting point lay in the range of 245 to 246 °C.

On to `Fc1ccc(Nc2nc3ccccc3[nH]2)cc1Cl` (as salt: hydrochloride) [Example 14, N-(Benzimidazol-2-yl)-3-chloro-4-fluoroaniline], for which the melting point is 306 to 307 °C.

Compound `Clc1cc(Cl)cc(Nc2nc3ccccc3[nH]2)c1` (as salt: hydrochloride) [Example 15, N-(Benzimidazol-2-yl)-3,5-dichloroaniline] showed a melting point of 317 to 318 °C.

`FC(F)(F)c1cc(Nc2nc3ccccc3[nH]2)ccc1Br` (as salt: hydrochloride) [Example 16, N-(Benzimidazol-2-yl)-4-bromo-3-(trifluoromethyl)aniline] had a melting point of 262 to 264 °C.

Compound `Cc1ccc(Nc2nc3ccccc3[nH]2)cc1C(F)(F)F` (as salt: hydrochloride) [Example 17, N-(Benzimidazol-2-yl)-4-methyl-3-(trifluoromethyl)aniline] showed a melting point greater than 265 °C.

For `Fc1cc(Nc2nc3ccccc3[nH]2)cc(C(F)(F)F)c1` (as salt: hydrochloride) [Example 18, N-(Benzimidazol-2-yl)-3-fluoro-5-(trifluoromethyl)aniline], the melting point lay in the range of 263 to 265 °C.

Take `CN(c1ccc(Cl)c(Cl)c1)c1nc2ccccc2[nH]1` (as salt: hydrochloride) [Example 22, N-(Benzoimidazol-2-yl)-N-methyl-3,4-dichloroaniline]: the melting point is greater than 275 °C.

Compound `COc1cc(Nc2nc3ccccc3[nH]2)cc(C(F)(F)F)c1` (as salt: hydrochloride) [Example 24, N-(Benzoimidazol-2-yl)-3-methoxy-5-(trifluoromethyl)aniline] displayed a melting point of 212 to 213 °C.

Consider `FC(F)(F)c1ccc(Nc2nc3ccccc3[nH]2)cc1` [Example 4, N-(Benzimidazol-2-yl)-4-(trifluoromethyl)aniline], for which the melting point lay in the range of 199 to 200 °C.

In turn, `FC(F)(F)c1cccc(Nc2nc3ccccc3[nH]2)c1` [Example 10, N-(Benzimidazol-2-yl)-3-(trifluoromethyl)aniline] had a melting point of 160 to 162 °C.

On to `Cc1c(Nc2nc3ccccc3[nH]2)cccc1C(F)(F)F` [Example 19, N-(Benzimidazol-2-yl)-2-methyl-3-(trifluoromethyl)aniline], for which the melting point is 204 to 206 °C.

`Fc1c(Nc2nc3ccccc3[nH]2)cccc1C(F)(F)F` [Example 20, N-(Benzimidazol-2-yl)-2-fluoro-3-(trifluoromethyl)aniline] returned a melting point of 91 to 92 °C.

The compound `Fc1ccc(Nc2nc3ccccc3[nH]2)c(F)c1F` [Example 21, N-(Benzimidazol-2-yl)-2,3,4-trifluoroaniline] registered a melting point of 182 to 183 °C.

As to `N#Cc1cccc(Nc2nc3ccccc3[nH]2)c1` [Example 23, N-(Benzoimidazol-2-yl)-3-cyanoaniline], the melting point lay in the range of 272 to 274 °C.

Take `CC(C)c1ccc(Nc2nc3ccccc3[nH]2)cc1` [Example 25, N-(Benzoimidazol-2-yl)-4-isopropylaniline]: the melting point is 179 to 180 °C.

Regarding `c1ccc(-c2ccccc2Nc2nc3ccccc3[nH]2)cc1` [Example 28, N-(Benzoimidazol-2-yl)-2-phenylaniline], the melting point fell in the range of 152 to 154 °C.
